{"source": "ChEMBL document CHEMBL1141132", "about": "“6-[1-(2,6-difluorophenyl)ethyl]pyrimidinones antagonize cell proliferation and induce cell differentiation by inhibiting (a nontelomeric) endogenous reverse transcriptase” (2005)", "key": {"[1]": {"test_system": "A-375", "experiment": "Percentage of alive human A-375 cells relative to DMSO-treated control at a concentration of 15 uM"}, "[2]": {"test_system": "A-375", "experiment": "Effect on alive human A-375 cell death treated with DMSO(control) at a concentration of 40 uM", "format": "functional"}, "[3]": {"test_system": "A-375", "experiment": "Effect on alive human A-375 cell death treated with DMSO(control) at a concentration of 50 uM", "format": "functional"}, "[4]": {"test_system": "A-375", "experiment": "Effect on necrotic human A-375 cell death treated with DMSO(control) at a concentration of 40 uM", "format": "functional"}, "[5]": {"test_system": "A-375", "experiment": "Percentage inhibition of proliferation against alive human A-375 cells treated with DMSO (control) at a concentration of 50 uM", "format": "functional"}, "[6]": {"test_system": "A-375", "experiment": "Percentage of alive human A-375 cells relative to DMSO-treated control at a concentration of 10 uM"}, "[7]": {"test_system": "A-375", "experiment": "Effect on alive human A-375 cell death treated with DMSO(control) at a concentration of 25 uM", "format": "functional"}, "[8]": {"test_system": "A-375", "experiment": "Effect on apoptotic human A-375 cell death treated with DMSO(control) at a concentration of 40 uM", "format": "functional"}, "[9]": {"test_system": "A-375", "experiment": "Effect on apoptotic human A-375 cell death treated with DMSO(control) at a concentration of 25 uM", "format": "functional"}, "[10]": {"test_system": "A-375", "experiment": "Percentage inhibition of proliferation against alive human A-375 cells treated with DMSO (control) at a concentration of 40 uM", "format": "functional"}, "[11]": {"test_system": "A-375", "experiment": "Effect on apoptotic human A-375 cell death treated with DMSO(control) at a concentration of 50 uM", "format": "functional"}, "[12]": {"test_system": "A-375", "experiment": "Percentage of alive human A-375 cells relative to DMSO-treated control at a concentration of 25 uM"}, "[13]": {"test_system": "A-375", "experiment": "Effect on necrotic human A-375 cell death treated with DMSO(control) at a concentration of 25 uM", "format": "functional"}, "[14]": {"test_system": "A-375", "experiment": "Effect on alive human A-375 cell death treated with DMSO(control) at a concentration of 10 uM", "format": "functional"}, "[15]": {"test_system": "A-375", "experiment": "Effect on necrotic human A-375 cell death treated with DMSO(control) at a concentration of 10 uM", "format": "functional"}, "[16]": {"test_system": "A-375", "experiment": "Effect on necrotic human A-375 cell death treated with DMSO(control) at a concentration of 50 uM", "format": "functional"}, "[17]": {"test_system": "A-375", "experiment": "Effect on apoptotic human A-375 cell death treated with DMSO(control) at a concentration of 10 uM", "format": "functional"}, "[18]": {"test_system": "A-375", "experiment": "Percentage inhibition of proliferation against alive human A-375 cells treated with DMSO (control) at a concentration of 350 uM", "format": "functional"}}, "data": [{"smiles": "O=C1Nc2ccc(Cl)cc2[C@@](C#CC2CC2)(C(F)(F)F)O1", "note": "[EFAVIRENZ]", "values": [{"measurement": "alive cells at 15 µM", "setting": "[1]", "value": 51, "unit": "%"}]}, {"smiles": "Cc1c(C(C)c2c(F)cccc2F)nc(N(C)C)[nH]c1=O", "note": "(centres undefined)", "values": [{"measurement": "Activity", "setting": "[2]", "value": 96, "unit": "%"}, {"measurement": "Activity", "setting": "[3]", "value": 89, "unit": "%"}, {"measurement": "Activity", "setting": "[4]", "value": 0.9, "unit": "%"}, {"measurement": "inhibition at 50 µM", "setting": "[5]", "value": 30, "unit": "%"}, {"measurement": "alive cells at 10 µM", "setting": "[6]", "value": 91, "unit": "%"}, {"measurement": "Activity", "setting": "[7]", "value": 96.3, "unit": "%"}, {"measurement": "Activity", "setting": "[8]", "value": 3.1, "unit": "%"}, {"measurement": "Activity", "setting": "[9]", "value": 2.3, "unit": "%"}, {"measurement": "inhibition at 40 µM", "setting": "[10]", "value": 42, "unit": "%"}, {"measurement": "Activity", "setting": "[11]", "value": 8.4, "unit": "%"}, {"measurement": "alive cells at 25 µM", "setting": "[12]", "value": 86, "unit": "%"}, {"measurement": "Activity", "setting": "[13]", "value": 1, "unit": "%"}, {"measurement": "Activity", "setting": "[14]", "value": 97.4, "unit": "%"}, {"measurement": "Activity", "setting": "[15]", "value": 0.8, "unit": "%"}, {"measurement": "Activity", "setting": "[16]", "value": 2.6, "unit": "%"}, {"measurement": "Activity", "setting": "[17]", "value": 1.8, "unit": "%"}]}, {"smiles": "Cc1c(C(C)c2c(F)cccc2F)nc(SC2CCCC2)[nH]c1=O", "note": "(centres undefined)", "values": [{"measurement": "Activity", "setting": "[2]", "value": 98.7, "unit": "%"}, {"measurement": "Activity", "setting": "[3]", "value": 80, "unit": "%"}, {"measurement": "Activity", "setting": "[4]", "value": 0.3, "unit": "%"}, {"measurement": "inhibition at 50 µM", "setting": "[5]", "value": 14, "unit": "%"}, {"measurement": "alive cells at 10 µM", "setting": "[6]", "value": 77, "unit": "%"}, {"measurement": "Activity", "setting": "[7]", "value": 96.4, "unit": "%"}, {"measurement": "Activity", "setting": "[8]", "value": 1, "unit": "%"}, {"measurement": "Activity", "setting": "[9]", "value": 2.6, "unit": "%"}, {"measurement": "inhibition at 40 µM", "setting": "[10]", "value": 65, "unit": "%"}, {"measurement": "Activity", "setting": "[11]", "value": 12.8, "unit": "%"}, {"measurement": "alive cells at 25 µM", "setting": "[12]", "value": 72, "unit": "%"}, {"measurement": "Activity", "setting": "[13]", "value": 1, "unit": "%"}, {"measurement": "Activity", "setting": "[14]", "value": 96.7, "unit": "%"}, {"measurement": "Activity", "setting": "[15]", "value": 1, "unit": "%"}, {"measurement": "Activity", "setting": "[16]", "value": 7.2, "unit": "%"}, {"measurement": "Activity", "setting": "[17]", "value": 2.3, "unit": "%"}]}, {"smiles": "Cc1ccnc2c1NC(=O)c1cccnc1N2C1CC1", "note": "[NEVIRAPINE]", "values": [{"measurement": "inhibition at 350 µM", "setting": "[18]", "value": 35, "unit": "%"}]}]}
